Experimental data as given in patent US11319283B2, “Substituted cyclobutylbenzene compounds as indoleamine 2,3-dioxygenase (IDO) inhibitors” (MERCK SHARP & DOHME CORP., priority 2017, dated 2022).

Tests used:
IDO1 = IDO1 (Homo sapiens, UniProt P14902); assay: IDO1 Cellular Assay in Hela Cells Stimulated with IFNγ; type: cell-based; parameters: endogenous in cells; host or cells: HeLa cells stimulated with IFNγ (100 ng/mL); settings: Hela cells stimulated with IFNγ 100 ng/mL, 300 uM L-tryptophan, about 48 hours, fluorescence readout
Sequence of IDO1 (P14902 whole entry): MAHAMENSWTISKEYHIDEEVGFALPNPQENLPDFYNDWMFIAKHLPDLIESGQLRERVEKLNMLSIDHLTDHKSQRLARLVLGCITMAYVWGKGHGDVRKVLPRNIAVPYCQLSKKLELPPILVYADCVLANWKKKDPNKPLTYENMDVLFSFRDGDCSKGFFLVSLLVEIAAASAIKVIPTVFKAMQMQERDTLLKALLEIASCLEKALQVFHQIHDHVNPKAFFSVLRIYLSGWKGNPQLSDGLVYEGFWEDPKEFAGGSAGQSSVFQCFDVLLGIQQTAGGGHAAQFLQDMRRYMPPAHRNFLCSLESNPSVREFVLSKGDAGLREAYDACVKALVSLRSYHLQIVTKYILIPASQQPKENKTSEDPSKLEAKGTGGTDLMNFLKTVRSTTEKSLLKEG
Procedure: IDO1 Cellular Assay in Hela Cells Stimulated with IFNγ
Hela cells were cultured in complete Hela culture medium (90% EMEM, 10% heat-inactivated fetal bovine serum) and expanded to about 1×10^9 cells. The cells were then collected and frozen down at 1×10^7 cells/vial in 1 mL frozen medium (90% complete Hela culture medium, 10% DMSO)
Compounds to be tested were serially diluted in ten 3-fold steps in DMSO starting from 10 mM DMSO stocks in Echo low volume plate(s).
Frozen Hela cells were thawed and transferred into Hela assay medium (99% complete Hela culture medium, 1% Pen/Strep) with 20 mL medium/vial of cells. The cells were spun down at 250 g in a table top centrifuge for 5 min and suspended in same volume of Hela assay medium. The cells were then counted and adjusted to a density of 2×10^5 cells/ml in Hela assay medium. Sterile L-tryptophan were added to the cells with final concentration of 300 uM L-tryptophan. A small aliquot (2 mL/plate) of Hela cells were set aside and were not treated with IFNγ, to serve as the Max-E control.
Hela cells with and without IFNγ were dispensed to the respective wells of 384-well assay plates containing the compounds. The plates were incubated for about 48 hours at a 37° C., 5% CO2 incubator. Afterwards, […] of 0.5 M methyl isonipecotate in dimethyl sulfoxide were added into each well and the plates were sealed and incubated at 37° C. without CO2 overnight. The plates were centrifuged for 1 min at 200×g. The resulting fluorescence was measured in a Spectramax plate reader (Molecular Devices) with a 400 nm excitation filter and a 510 nm emission filter.
Potencies were calculated by linear least squares fit to the four parameter logistic IC50 equation.

TDO = target: T1, TDO (Homo sapiens, UniProt P48775); assay: TDO Cellular Assay in Frozen SW48 Cells; type: cell-based; settings: 300 uM L-tryptophan, about 48 hours, fluorescence readout
T1 construct: endogenous in cells; host or cells: SW48 cells (A2780 cells as control with minimal TDO activity)
T1 sequence (P48775 whole entry): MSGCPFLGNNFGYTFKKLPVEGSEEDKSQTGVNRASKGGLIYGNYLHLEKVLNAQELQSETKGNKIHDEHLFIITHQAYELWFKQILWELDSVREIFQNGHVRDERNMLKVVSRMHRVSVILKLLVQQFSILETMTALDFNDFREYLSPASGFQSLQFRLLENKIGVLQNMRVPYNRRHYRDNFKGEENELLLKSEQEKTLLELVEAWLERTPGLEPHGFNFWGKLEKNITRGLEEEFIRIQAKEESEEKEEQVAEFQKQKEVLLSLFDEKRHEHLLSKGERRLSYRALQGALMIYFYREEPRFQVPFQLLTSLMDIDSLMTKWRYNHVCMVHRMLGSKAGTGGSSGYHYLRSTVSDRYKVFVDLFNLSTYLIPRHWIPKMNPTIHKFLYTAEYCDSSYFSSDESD
Procedure: TDO Cellular Assay in Frozen SW48 Cells
SW48 cells were cultured in complete RPMI culture medium (90% RPMI, 10% heat-inactivated fetal bovine serum).
Compounds to be tested were serially diluted in ten 3-fold steps in DMSO starting from 10 mM DMSO stocks in Echo low volume plate(s). […] The cells were spun down at 350 g in a table top centrifuge for 5 minutes and suspended in same volume of RPMI assay medium. […] Sterile L-tryptophan (Sigma, Cat # T0254) was added to the cells with final concentration of 300 uM.
SW48 and A2780 cells were dispensed to the respective wells of 384-well assay plates containing the compounds. The plates were incubated for about 48 hours at a 37° C., 5% CO2 incubator. Afterwards, 12 μL of 0.5 M ethyl isonipecotate (Sigma Aldrich, Cat # E33505) in dimethyl sulfoxide were added into each well and the plates were sealed and incubated at 37° C. without CO2 overnight. The plates were centrifuged for 1 minute at 200×g. The resulting fluorescence was measured in a Spectramax plate reader (Molecular Devices) with a 400 nm excitation filter and a 510 nm emission filter.
The fluorescence intensity of each well was corrected for the background observed in wells with A2780 cells and was expressed as a fraction of the intensity observed in wells of SW48 cells and DMSO only. Potencies were calculated by linear least squares fit to the four parameter logistic IC50 equation.

SMILES	IC50 (IDO1) [µM]	IC50 (TDO) [µM]
O=C(Nc1ccc(C2(NC(=O)c3cnccn3)CCC2)cc1)c1cccc(Cl)c1 [Example 3, N-(1-{4-[(3-chlorobenzene-1-carbonyl)amino]phenyl}cyclobutyl)pyrazine-2-carboxamide]	0.131	≥ 10
O=C(Nc1ccc(C2(NC(=O)c3ncccc3Cl)CCC2)cc1)c1cccc(Cl)c1 [Example 4, 3-chloro-N-(1-{4-[(3-chlorobenzene-1-carbonyl)amino]phenyl}cyclobutyl)pyridine-2-carboxamide]	0.136	≥ 10
O=C(Nc1ccc(C2(NC(=O)c3cc(Cl)ccn3)CCC2)cc1)c1cccc(Cl)c1 [Example 5, 4-chloro-N-(1-{4-[(3-chlorobenzene-1-carbonyl)amino]phenyl}cyclobutyl)pyridine-2-carboxamide]	0.136	≥ 10
Cn1ccnc1C(=O)NC1(c2ccc(NC(=O)c3cccc(Cl)c3)cc2)CCC1 [Example 6, N-(1-{4-[(3-chlorobenzene-1-carbonyl)amino]phenyl}cyclobutyl)-1-methyl-1H-imidazole-2-carboxamide]	0.577	≥ 10
O=C(Nc1ccc(C2(NC(=O)c3ccc(Cl)c(F)c3)CCC2)cc1)c1cccc(Cl)c1 [Example 8, 4-chloro-N-(1-{4-[(3-chlorobenzene-1-carbonyl)amino]phenyl}cyclobutyl)-3-fluorobenzamide]	0.004	≥ 10
O=C(Nc1ccc(C2(NC(=O)c3ccc(Cl)cn3)CCC2)cc1)c1cccc(Cl)c1 [Example 9, 5-chloro-N-(1-{4-[(3-chlorobenzene-1-carbonyl)amino]phenyl}cyclobutyl)pyridine-2-carboxamide]	0.011	≥ 10
O=C(Nc1ccc(C2(NC(=O)c3ccc(F)c(F)c3)CCC2)cc1)c1cccc(Cl)c1 [Example 10, N-(1-{4-[(3-chlorobenzene-1-carbonyl)amino]phenyl}cyclobutyl)-3,4-difluorobenzamide]	0.014	≥ 10
O=C(Nc1ccc(C2(NC(=O)c3ccc(Cl)c(Cl)c3)CCC2)cc1)c1cccc(Cl)c1 [Example 11, 3,4-dichloro-N-(1-{4-[(3-chlorobenzene-1-carbonyl)amino]phenyl}cyclobutyl)benzamide]	0.019	≥ 10
Cn1ccc(C(=O)NC2(c3ccc(NC(=O)c4cccc(Cl)c4)cc3)CCC2)n1 [Example 13, N-(1-{4-[(3-chlorobenzene-1-carbonyl)amino]phenyl}cyclobutyl)-1-methyl-1H-pyrazole-3-carboxamide]	0.03	≥ 10
O=C(Nc1ccc(C2(C(=O)Nc3ccc(F)cc3F)CCC2)cc1)c1cccc(Cl)c1 [Example 25, 3-chloro-N-(4-{1-[(2,4-difluorophenyl)carbamoyl]cyclobutyl}phenyl) benzamide]	0.003	≥ 10
O=C(Nc1ccc(C2(C(=O)Nc3ccc(F)c(F)c3)CCC2)cc1)c1cccc(Cl)c1 [Example 26, 3-chloro-N-(4-{1-[(3,4-difluorophenyl)carbamoyl]cyclobutyl}phenyl) benzamide]	0.003	≥ 10
O=C(Nc1ccc(C2(C(=O)NS(=O)(=O)c3ccccc3)CCC2)cc1)c1cccc(Cl)c1 [Example 53, 3-chloro-N-(4-{1-[(phenylsulfonyl)carbamoyl]cyclobutyl}phenyl) benzamide]	0.834	≥ 10
O=C(Nc1cccc(Cl)c1F)c1ccc(C2(C(=O)Nc3ccc(F)cn3)CCC2)cc1 [Example 59, N-(3-chloro-2-fluorophenyl)-4-(1-((5-fluoropyridin-2-yl)carbamoyl)cyclobutyl)benzamide]	0.017	≥ 10

Next, values leading:

IC50 (IDO1) [µM]	IC50 (TDO) [µM]	SMILES
0.035	≥ 10	CC1CC1NC(=O)C1(c2ccc(NC(=O)c3cccc(Cl)c3)cc2)CCC1 (single isomer, unassigned) [Example 22, 3-chloro-N-(4-(1-((2-methylcyclopropyl)carbamoyl)cyclobutyl)phenyl)benzamide]
0.078	≥ 10	CC1CC1NC(=O)C1(c2ccc(NC(=O)c3cccc(Cl)c3)cc2)CCC1 (single isomer, unassigned) [Example 23, 3-chloro-N-(4-(1-((2-methylcyclopropyl)carbamoyl)cyclobutyl)phenyl)benzamide]
0.092	≥ 10	O=C(Nc1ccc(C2(NC(=O)c3cocn3)CCC2)cc1)c1cccc(Cl)c1 [Example 16, N-(1-{4-[(3-chlorobenzene-1-carbonyl)amino]phenyl}cyclobutyl)-1,3-oxazole-4-carboxamide]
0.003	≥ 10	O=C(Nc1ccc(C2(C(=O)Nc3ccc(Cl)cc3)CCC2)cc1)c1cccc(Cl)c1 [Example 24, 3-chloro-N-(4-{1-[(4-chlorophenyl)carbamoyl]cyclobutyl}phenyl) benzamide]
0.004	≥ 10	O=C(Nc1ccc(C2(C(=O)Nc3ccc(F)nc3)CCC2)cc1)c1cccc(Cl)c1 [Example 29, 3-chloro-N-(4-{1-[(6-fluoropyridin-3-yl)carbamoyl]cyclobutyl}phenyl)benzamide]
0.008	≥ 10	CCC1CC1NC(=O)C1(c2ccc(NC(=O)c3cccc(Cl)c3)cc2)CCC1 (centres unmarked) [Example 31, 3-chloro-N-(4-{1-[(2-ethylcyclopropyl)carbamoyl]cyclobutyl}phenyl)benzamide]
0.024	≥ 10	CCOC1CC1NC(=O)C1(c2ccc(NC(=O)c3cccc(Cl)c3)cc2)CCC1 (centres unmarked) [Example 36, 3-chloro-N-(4-{1-[(2-ethoxycyclopropyl)carbamoyl]cyclobutyl}phenyl) benzamide]
0.028	≥ 10	O=C(Nc1ccc(C2(C(=O)NC3CC3C(F)F)CCC2)cc1)c1cccc(Cl)c1 (centres unmarked) [Example 37, 3-chloro-N-[4-(1-{[2-(difluoromethyl)cyclopropyl]carbamoyl}cyclobutyl)phenyl] benzamide]
0.039	≥ 10	O=C(Nc1ccc(C2(C(=O)NC3CCCOC3)CCC2)cc1)c1cccc(Cl)c1 (centres unmarked) [Example 40, 3-chloro-N-(4-{1-[(oxan-3-yl)carbamoyl]cyclobutyl}phenyl)benzamide]
0.119	≥ 10	CC1(C)CC(NC(=O)C2(c3ccc(NC(=O)c4cccc(Cl)c4)cc3)CCC2)CCO1 (centres unmarked) [Example 42, 3-chloro-N-(4-{1-[(2,2-dimethyloxan-4-yl)carbamoyl]cyclobutyl}phenyl)benzamide]
0.709	≥ 10	O=C(Nc1ccc(C2(C(=O)NC3CN(CC(F)(F)F)C3)CCC2)cc1)c1cccc(Cl)c1 [Example 44, 3-chloro-N-[4-(1-{[1-(2,2,2-trifluoroethyl)azetidin-3-yl]carbamoyl}cyclobutyl)phenyl]benzamide]
0.058	≥ 10	CCOC(C)CNC(=O)C1(c2ccc(NC(=O)c3cccc(Cl)c3)cc2)CCC1 (centres unmarked) [Example 45, 3-Chloro-N-(4-(1-((2-ethoxypropyl)carbamoyl)cyclobutyl)phenyl)benzamide]
0.126	≥ 10	O=C(Nc1ccc(C2(C(=O)NCC(F)(F)F)CCC2)cc1)c1cccc(Cl)c1 [Example 49, 3-chloro-N-(4-{1-[(2,2,2-trifluoroethyl)carbamoyl]cyclobutyl}phenyl) benzamide]
0.404	≥ 10	O=C(Nc1ccc(C2(C(=O)N[C@H]3CCOC3)CCC2)cc1)c1cccc(Cl)c1 [Example 51, 3-chloro-N-[4-(1-{[(3S)-oxolan-3-yl]carbamoyl}cyclobutyl)phenyl]benzamide]
0.427	≥ 10	O=C(Nc1ccc(C2(C(=O)N[C@@H]3CCOC3)CCC2)cc1)c1cccc(Cl)c1 [Example 52, 3-chloro-N-[4-(1-{[(3R)-oxolan-3-yl]carbamoyl}cyclobutyl)phenyl]benzamide]
